# Counter-ions that a name gives are not always drawn.
row,SMILES,melting point [°C]
1,"CCCc1nc2c(N)nc(C)c(C)c2n1CCCCCCS(C)(=O)=O [Example 91, 1-[6-(Methanesulfonyl)hexyl]-6,7-dimethyl-2-propyl-1H-imidazo[4,5-c]pyridin-4-amine]",157 to 158
2,"CCCc1nc2c(N)nc(C)c(C)c2n1CCCS(=O)(=O)c1ccc(C(=O)N2CCOCC2)cc1 [Example 101, {4-[3-(4-Amino-6,7-dimethyl-2-propyl-1H-imidazo[4,5-c]pyridin-1-yl)propane-1-sulfonyl]phenyl}morpholin-4-ylmethanone]",224 to 226
3,"CCOCc1nc2c(N)nc(C)c(C)c2n1CCOCCCc1cccnc1 [Example 11, 2-(Ethoxymethyl)-6,7-dimethyl-1-[2-(3-pyridin-3-ylpropoxy)ethyl]-1H-imidazo[4,5-c]pyridin-4-amine]",78 to 78.5
4,"Cc1nc(N)c2nc(C)n(CCOCCNC(=O)N3CCOCC3)c2c1C (as salt: salt) [Example 15, N-{2-[2-(4-Amino-2,6,7-trimethyl-1H-imidazo[4,5-c]pyridin-1-yl)ethoxy]ethyl}morpholine-4-carboxamide]",205 to 207
5,"CCCc1nc2c(N)nc(C)c(C)c2n1CCCS(=O)(=O)c1ccc(C(=O)O)cc1 (as salt: hydrochloride) [Example 100, 4-[3-(4-Amino-6,7-dimethyl-2-propyl-1II-imidazo[4,5-c]pyridin-1-yl)propane-1-sulfonyl]benzoic acid hydrochloride]",> 250
6,"Cc1nc(N)c2nc(C)n(CCOC/C=C/c3ccccc3)c2c1C [Example 9, 2,6,7-Trimethyl-1-(2-{[(2E)-3-phenylprop-2-enyl]oxy}ethyl)-1H-imidazo[4,5-c]pyridin-4-amine]",143.7 to 144.8
7,"CCCCc1nc2c(N)nc(C)c(C)c2n1CCOc1ccccc1 [Example 3, 2-Butyl-6,7-dimethyl-1-(2-phenoxyethyl)-1H-imidazo[4,5-c]pyridin-4-amine]",130 to 132
8,"Cc1nc(N)c2nc(C)n(CCOCc3ccncc3)c2c1C [Example 110, 2,6,7-Trimethyl-1-[2-(pyridin-4-ylmethoxy)ethyl]-1H-imidazo[4,5-c]pyridin-4-amine]",208 to 210
9,"Cc1nc(N)c2nc(C)n(CCCCCS(C)(=O)=O)c2c1C [Example 78, 1-[5-(Methanesulfonyl)pentyl]-2,6,7-trimethyl-1H-imidazo[4,5-c]pyridin-4-amine]",199 to 200
10,"CCOCc1nc2c(N)nc(C)c(C)c2n1CCOCc1ccncc1 [Example 109, 2-(Ethoxymethyl)-6,7-dimethyl-1-[2-(pyridin-4-ylmethoxy)ethyl]-1II-imidazo[4,5-c]pyridin-4-amine]",143 to 145
11,"CCc1nc2c(N)nc(C)c(C)c2n1CCOCCNC(=O)N1CCOCC1 [Example 103, N-{2-[2-(4-Amino-2-ethyl-6,7-dimethyl-1H-imidazo[4,5-c]pyridin-1-yl)ethoxy]ethyl}morpholine-4-carboxamide]",182 to 184
12,"Cc1nc(N)c2ncn(CCOCc3ccncc3)c2c1C [Example 84, 6,7-Dimethyl-1-[2-(pyridin-4-ylmethoxy)ethyl]-1H-imidazo[4,5-c]pyridin-4-amine]",195 to 196
13,"CCCc1nc2c(N)nc(C)c(C)c2n1CCCCCS(C)(=O)=O [Example 96, 1-[5-(Methanesulfonyl)pentyl]-6,7-dimethyl-2-propyl-1H-imidazo[4,5-c]pyridin-4-amine]",145 to 146
14,CCCc1nc2c(N)nc(C)c(C)c2n1CCCS(=O)(=O)c1ccc(Cl)cc1,186.5 to 188
15,"CCCc1nc2c(N)nc(C)c(C)c2n1CCCCCS(=O)(=O)c1ccc(Cl)cc1 [Example 85, 1-[5-(4-Chlorobenzenesulfonyl)pentyl]-6,7-dimethyl-2-propyl-1H-imidazo[4,5-c]pyridin-4-amine]",147 to 149
16,"Cc1nc(N)c2nc(C)n(CCOCCN)c2c1C (as salt: salt) [Example 14, 1-[2-(2-Aminoethoxy)ethyl]-2,6,7-trimethyl-1H-imidazo[4,5-c]pyridin-4-amine]",130 to 133
17,"CCCc1nc2c(N)nc(C)c(C)c2n1CCCS(=O)(=O)c1ccc(C(=O)OCC)cc1 [Example 99, 4-[3-(4-Amino-6,7-dimethyl-2-propyl-1H-imidazo[4,5-c]pyridin-1-yl)propane-1-sulfonyl]benzoic acid ethyl ester]",169 to 171
18,"Cc1nc(N)c2nc(C)n(CCOCCCc3ccccc3)c2c1C [Example 8, 2,6,7-Trimethyl-1-[2-(3-phenylpropoxy)ethyl]-1H-imidazo[4,5-c]pyridin-4-amine]",118.1 to 119
19,"CCCc1nc2c(N)nc(Cl)c(C)c2n1CCOCCNC(=O)c1ccccc1 [Example 125, N-{2-[2-(4-Amino-6-chloro-7-methyl-2-propyl-1H-imidazo[4,5-c]pyridin-4-yl)ethoxy]ethyl}benzamide]",188 to 189
20,CCCc1nc2c(N)nc(C)c(C)c2n1CCCCCS(=O)(=O)c1ccccc1,134 to 136

row,SMILES,melting point [°C]
1,"CCc1nc2c(N)nc(C)c(C)c2n1CCOCCN1CCCC1=O [Example 124, 1-{2-[2-(4-Amino-2-ethyl-6,7-dimethyl-1H-imidazo[4,5-c]pyridin-1-yl)ethoxy]ethyl}pyrrolindin-2-one]",128 to 130
2,"CCOCc1nc2c(N)nc(C)c(C)c2n1CCOCC#Cc1ccccc1 [Example 122, 2-Ethoxymethyl-6,7-dimethyl-1-{2-[(3-phenylprop-2-ynyl)oxy]ethyl}-1H-imidazo[4,5-c]pyridin-4-amine]",129 to 130
3,"CCCc1nc2c(N)nc(C)c(C)c2n1CCCS(=O)(=O)c1ccccn1 [Example 98, 6,7-Dimethyl-2-propyl-1-[3-(pyridine-2-sulfonyl)propyl]-1H-imidazo[4,5-c]pyridin-4-amine]",172 to 173.5
4,"Cc1nc(N)c2nc(C)n(CCCCCSc3ccccc3)c2c1C [Example 13, 2,6,7-Trimethyl-1-[5-(phenylthio)pentyl]-1H-imidazo[4,5-c]pyridin-4-amine]",181 to 183
5,"CSCCCCCn1c(C)nc2c(N)nc(C)c(C)c21 [Example 12, 2,6,7-Trimethyl-1-[5-(methylthio)pentyl]-1H-imidazo[4,5-c]pyridin-4-amine]",121 to 122
6,"CCCc1nc2c(N)nc(Cl)c(C)c2n1CCOCCN [Example 121, 1-[2-(2-Aminoethoxy)ethyl]-6-chloro-7-methyl-2-propyl-1H-imidazo[4,5-c]pyridin-4-amine]",158 to 161
7,"CCCc1nc2c(N)nc(C)c(C)c2n1CCCCCS(=O)(=O)c1ccccn1 [Example 87, 6,7-Dimethyl-2-propyl-1-[5-(pyridine-2-sulfonyl)pentyl]-1H-imidazo[4,5-c]pyridin-4-amine]",143 to 144.5
8,"CCc1nc2c(N)nc(C)c(C)c2n1CCOCCNC(=O)NC(=O)c1ccccc1 [Example 107, N-{2-[2-(4-Amino-2-ethyl-6,7-dimethyl-1H-imidazo[4,5-c]pyridin-1-yl)ethoxy]ethyl}-N′-benzoylurea]",185 to 187
9,"CCOCc1nc2c(N)nc(C)cc2n1CCOCc1ccccc1 [Example 80, 1-[2-(Benzyloxy)ethyl]-2-(ethoxymethyl)-6-methyl-1H-imidazo[4,5-c]pyridin-4-amine]",127 to 128
10,"CCCc1nc2c(N)ncc(Br)c2n1CCOCCNS(C)(=O)=O [Example 113, N-{2-[2-(4-Amino-7-bromo-2-propyl-1H-imidazo[4,5-c]pyridin-1-yl)ethoxy]ethyl}methanesulfonamide]",129 to 131
11,"CCCc1nc2c(N)nc(C)c(C)c2n1CCCCS(C)(=O)=O [Example 89, 1-[4-(Methanesulfonyl)butyl]-6,7-dimethyl-2-propyl-1H-imidazo[4,5-c]pyridin-4-amine]",152 to 153
12,CCCc1nc2c(N)nc(C)c(C)c2n1CCCCCS(=O)(=O)c1ccc(OC)cc1,130.5 to 132
13,"Cc1nc(N)c2nc(C)n(CCOCC#Cc3ccccc3)c2c1C [Example 7, 2,6,7-Trimethyl-1-{2-[(3-phenylprop-2-ynyl)oxy]ethyl}-1H-imidazo[4,5-c]pyridin-4-amine]",186.8 to 187.5
14,"CCCc1nc2c(N)nc(C)c(C)c2n1CCCCCS(=O)(=O)c1ccc(F)cc1F [Example 93, 1-[5-(2,4-Difluorobenzenesulfonyl)pentyl]-6,7-dimethyl-2-propyl-1H-imidazo[4,5-c]pyridin-4-amine]",130 to 132
15,"CCCc1nc2c(N)nc(C)c(C)c2n1CCOCc1ccccc1 [Example 6, 1-[2-(Benzyloxy)ethyl]-6,7-dimethyl-2-propyl-1H-imidazo[4,5-c]pyridin-4-amine]",99.5 to 100
16,"CCOCc1nc2c(N)nc(C)c(C)c2n1CCOCC#Cc1cncnc1 [Example 111, 2-(Ethoxymethyl)-6,7-dimethyl-1-{2-[(3-pyrimidin-5-ylprop-2-ynyl)oxy]ethyl}-1H-imidazo[4,5-c]pyridin-4-amine]",122 to 124
17,"CCCc1nc2c(N)nc(C)c(C)c2n1CCCCCS(=O)(=O)c1ccc(Cl)cc1Cl [Example 95, 1-[5-(2,4-Dichlorobenzenesulfonyl)pentyl]-6,7-dimethyl-2-propyl-1H-imidazo[4,5-c]pyridin-4-amine]",130 to 131.5
18,"CCCc1nc2c(N)nc(C)c(C)c2n1CCCS(C)(=O)=O [Example 90, 1-[3-(Methanesulfonyl)propyl]-6,7-dimethyl-2-propyl-1H-imidazo[4,5-c]pyridin-4-amine]",153.5 to 155
19,"CCOCc1nc2c(N)nc(C)c(C)c2n1CCOCCCc1ccccc1 (as salt: hydrochloride) [Example 123, 2-Ethoxymethyl-6,7-dimethyl-1-[2-(3-phenylpropoxy)ethyl]-1H-imidazo[4,5-c]pyridin-4-amine hydrochloride]",128 to 130
20,"Cc1nc(N)c2nc(C)n(CCOCCNC(=O)C(C)C)c2c1C (as salt: salt) [Example 16, N-{2-[2-(4-Amino-2,6,7-trimethyl-1H-imidazo[4,5-c]pyridin-1-yl)ethoxy]ethyl}-2-methylpropanamide]",179.5 to 182

# — patent US7220758B2, “Ether substituted imidazopyridines” (3M Innovative Properties Company, priority 2002, dated 2007)
